The SangsterLogP compilation
Blank lines part the entries; values can stand above or below the compound they belong to.

Key:
[1] = method code SF-AS, from DOI: 10.1021/jm0104926, PMID: 11960499
[2] = method code SF-AS, from DOI: 10.1021/acs.jmedchem.5b00731, PMID: 26397825; details: pH 7.4
[3] = method code SF-HPLC, from DOI: 10.1021/jm00056a006, PMID: 8474102; details: pH 7.4
[4] = method code SF-TN, from DOI: 10.1007/bf00632830
[5] = method code SF-HPLC, from DOI: 10.1016/j.bmc.2009.01.040, PMID: 19208447; details: pH 7.0
[6] = method code SF-AS, from DOI: 10.1016/j.dyepig.2012.09.011; details: pH 7.4
[7] = method code SF-FL, from DOI: 10.1562/0031-8655(2004)79<242:pmolop>2.0.co;2, PMID: 15115296; details: pH 7.4
[8] = not given; remark: listed apart in the source
[9] = not given; remark: listed apart in the source
[10] = not given; remark: listed apart in the source
[11] = method code SF-AS, from DOI: 10.1562/0031-8655(2003)0780411sacotn2.0.co2, PMID: 14626671; details: pH 6.8
[12] = method code SF-HPLC, from DOI: 10.1016/0378-5173(93)90356-k; details: pH 7.4
[13] = method code SF-RC, from DOI: 10.1016/j.nucmedbio.2016.05.003, PMID: 27236283; details: pH 7.4
[14] = method code SF-RC/EIA, from DOI: 10.1016/s0022-2275(20)42614-8, PMID: 2280184; details: pH 1.0
[15] = method code SF-AS, from DOI: 10.1016/0223-5234(92)90105-a
[16] = not given; remark: listed apart in the source
[17] = not given; remark: listed apart in the source
[18] = method code SF, from DOI: 10.1021/bi00507a030, PMID: 7213619; details: pH 1.0
[19] = method code SF-CR+AS, from DOI: 10.1021/bi00514a045, PMID: 7248282; details: pH 7.0
[20] = method code SF-HPLC, from DOI: 10.1016/j.ejps.2013.10.002, PMID: 24161609
[21] = method code SF-AS, from Suikov, S.Yu.; Bondarenko, A.V.; Bogza, S.L.; Lutsyk, A.I. (2003). Distribution of 5-aminopyrazoles and 5-aminoisoxazoles in the octanol-water system. Ukr. Khim. Zh. (Russ. Ed.), 69(5/6)31-34.
[22] = method code SF-AS, from DOI: 10.1562/0031-8655(2002)076<0127:dlbcop>2.0.co;2, PMID: 12194207; details: pH 7.3
[23] = not given; remark: listed apart in the source
[24] = method code SF-AS, from DOI: 10.1021/jm020389w, PMID: 12620073; details: pH 7.4
[25] = method code SF-AS, from Lee, B.; Shin, J.; Lim, M.; Jang, T.; Park, J.; Kim, K.; Kang, W. (1997). Partition Property of 5-Nitrothiopyrimidine Nucleoside. Bull Korean Chem Soc, 18(7)734-736.; details: pH 7.0
[26] = method code SF, from DOI: 10.1016/s0960-894x(00)80094-3; details: pH 7.4
[27] = not given; remark: listed apart in the source
[28] = method code SF-HPLC, from DOI: 10.1002/ps.2780220406
[29] = method code SF-AS, from DOI: 10.1002/jps.2600600712, PMID: 4398902
[30] = method code SF-RC, from DOI: 10.1023/a:1015913817221, PMID: 2798313; details: pH 7.4
[31] = not given; remark: listed apart in the source
[32] = method code SF-AS, from DOI: 10.1016/s0021-9673(01)89384-5
[33] = method code SF-TN, from Korenman, I M.; Lunicheva, V.; Pomerantseva, G.; Khairulina, D. (1974). Distribution of methacrylic acid between organic solvents and water. Zh. Prikl. Khim., 47(10)2432-2434.
[34] = not given; remark: listed apart in the source

SMILES: [N-]=[N+]=CC(F)(F)F
- logP [1]: 1.6

SMILES: Cn1cc[nH]c1=S
- logP: -0.22

SMILES: CC(C)CC(O)C(O)C(CC1CCCCC1)NC(=O)C(Cc1nccs1)NC(=O)C(Cc1ccccc1)CS(=O)(=O)C1CN(C)C1 (stereo not drawn)
- logD [3]: 3.89

SMILES: CN(C)C
- logP [4]: 0.27

SMILES: CC(C)CC(O)C(O)C(CC1CCCCC1)NC(=O)C(Cc1cscn1)NC(=O)C(Cc1ccccc1)CS(=O)(=O)C1CCN(C)C1 (stereo not drawn)
- logD [3]: 3.61

SMILES: O=C(O)CNCP(=O)(O)O
- logP [8]: -3.3

SMILES: ClCC(Cl)Cl
- logP [9]: 1.98

SMILES: FC(F)(F)Cl
- logP [10]: 1.56

SMILES: O=c1[nH]cc(F)c(=O)[nH]1
- logD [12]: -0.7

SMILES: C[C@H](CCC(=O)NCC(=O)O)[C@H]1CC[C@H]2[C@@H]3[C@H](O)C[C@@H]4C[C@H](O)CC[C@]4(C)[C@H]3C[C@H](O)[C@]12C
- logD [14]: 1.65

SMILES: C[C@H](CCC(=O)NCC(=O)O)[C@H]1CC[C@H]2[C@@H]3[C@H](O)C[C@@H]4C[C@H](O)CC[C@]4(C)[C@H]3CC[C@]12C
- logD [14]: 2.12

SMILES: CCOC(=O)Nc1ccc2nn(C)nc2c1
- logP [15]: 1.83

SMILES: COP(=O)(OC)OC(Br)C(Cl)(Cl)Br (stereo not drawn)
- logP [16]: 2.19

SMILES: CCC(N)=O
- logD [18]: -0.66

SMILES: N#CSO
- logD [19]: 0.32

SMILES: O=C(O)[C@H](O)[C@@H](O)C(=O)O
- logP [20]: -1.2

SMILES: S=c1cc[nH]c(=S)[nH]1
- logD [25]: -0.86

SMILES: NC1CCN(O)C1=O (stereo not drawn)
- logD [26]: -3.52

SMILES: CCCOC(=O)CC(Cc1cncn1C)C(CC)C(=O)OCc1ccc(COC(=O)C(CC)C(CC(=O)OCCC)Cc2cncn2C)cc1 (stereo not drawn)
- logP [27]: 5.47

SMILES: S=C1CCCO1
- logP [29]: 0.6

SMILES: NC(N)=S
- logD [30]: -0.92

SMILES: COP(=O)(OC)OC=C(Cl)Cl
- logP [31]: 1.4

SMILES: Cc1nccnn1
- logP [32]: -0.55

SMILES: C=C(C)C(=O)O
- logP [33]: 0.93

SMILES: CCCCOC(=O)CC(Cc1cncn1C)C(CC)C(=O)OCc1ccc(COC(=O)C(CC)C(CC(=O)OCCCC)Cc2cncn2C)cc1 (stereo not drawn)
- logP [27]: 6.87

SMILES: CCC[N+](=O)[O-]
- logP [34]: 0.86

Further lines, results first:

- logD [2]: 3.2
SMILES: CCN(CC)c1ccc(C=C2CC(=Cc3ccc(N(COCCOCCOCCOC)COCCOCCOCCOC)cc3)C2=O)cc1

- logD [5]: -0.13
SMILES: CC(C(=O)OCC(O)C(OC1OC(CO)C(O)C(O)C1O)C(O)C(O)C=O)c1cccc(C(=O)c2ccccc2)c1 (stereo not drawn)

- logD [6]: 2.74
SMILES: C1=Cc2nc1c(-c1cccs1)c1ccc([nH]1)c(-c1cccs1)c1nc(c(-c3cccs3)c3ccc([nH]3)c2-c2cccs2)C=C1

- logD [7]: 4.93
SMILES: Oc1cccc(-c2c3nc(c(-c4cccc(O)c4)c4ccc([nH]4)c(-c4cccc(O)c4)c4nc(c(-c5cccc(O)c5)c5ccc2[nH]5)C=C4)C=C3)c1

- logD [11]: 1.67
SMILES: COC1=C2CC(C)=c3c(C(C)=O)c(OC)c(O)c4c3c2c2c(cc(OC)c3c(OC)cc(O)c4c32)C(=O)C1=O

- logD [2]: 2.86
SMILES: COCCOCCOCCOCN(C)c1ccc(C=C2CC(=Cc3ccc(N(C)COCCOCCOCCOC)cc3)C2=O)cc1

- logD [11]: 0.5
SMILES: COc1c(O)c2c(=O)cc(OC)c3c4c(OC)cc(=O)c5c(O)c(NCCN(C)C)c6c(c(c1C(C(C)=O)=C(C)C6)c23)c54

- logD [13]: 1.43
SMILES: COc1cc(NCCCF)cc(OC)c1NC(=O)c1ccc(Cc2cc3c(cc2C)CCCC3(C)C)o1

- logP [17]: 1.92
SMILES: CC(=O)OC1C(=O)C2(C)C(O)CC3OCC3(OC(C)=O)C2C(OC(=O)c2ccccc2)C2(O)CC(OC(=O)C(O)CNC(=O)c3ccccc3)C(C)=C1C2(C)C (stereo not drawn)

- logD [7]: 1.79
SMILES: O=S(=O)(O)c1ccc(-c2c3nc(c(-c4ccc(S(=O)(=O)O)cc4)c4ccc([nH]4)c(-c4ccccc4)c4nc(c(-c5ccccc5)c5ccc2[nH]5)C=C4)CC3)cc1

- logD [6]: 3.75
SMILES: Nc1cccc(-c2c3nc(c(-c4cccc(N)c4)c4ccc([nH]4)c(-c4cccc(N)c4)c4nc(c(-c5cccc(N)c5)c5ccc2[nH]5)C=C4)C=C3)c1

- logD [5]: -0.25
SMILES: O=C(c1ccccc1)c1cccc(C(O)C(=O)OCC2OC(OC3OC(CO)C(O)C(O)C3O)C(O)C(O)C2O)c1 (stereo not drawn)

- logD [13]: 1.85
SMILES: COc1cc(OCCF)cc(OC)c1NC(=O)c1ccc(Cc2cc3c(cc2C)CCCC3(C)C)o1

- logP [21]: 4.04
SMILES: Nc1c(-c2ccccc2)c(-c2ccccc2)nn1-c1ccccc1

- logD [22]: 3.35
SMILES: c1ccc2c(c1)-c1cc3[nH]c(cc4nc(cc5[nH]c(cc-2n1)c1ccccc51)-c1ccccc1-4)c1ccccc31

- logP [23]: 5.17
SMILES: COc1ccc2c(c1)c(CC(=O)C1c3cccc(O)c3C(=O)c3c(O)cccc31)c(C)n2C(=O)c1ccc(Cl)cc1

- logP [17]: 1.52
SMILES: CC(=O)O[C@H]1C(=O)[C@@]2(C)[C@H]([C@H](OC(=O)c3ccccc3)[C@]3(O)C[C@H](OC(=O)[C@@H](C)O)C(C)=C1C3(C)C)[C@]1(OC(C)=O)CO[C@@H]1C[C@@H]2O

- logD [24]: 1.55
SMILES: CCOC(=O)Nc1ccc2cc3ccc(N)c(CO)c3nc2c1

- logP [28]: 2.54
SMILES: Clc1ccc(Cn2cncn2)cc1Cl

- logP [23]: 4.46
SMILES: CC(C(=O)C1c2cccc(O)c2C(=O)c2c(O)cccc21)c1ccc(Cc2ccccc2)cc1 (stereo not drawn)

- logP [21]: 1.42
SMILES: COc1ccc(-c2cc(N)n[nH]2)cc1

- logD [22]: 5.42
SMILES: Oc1cccc(-c2c3nc(c(-c4cccc(O)c4)c4ccc([nH]4)c(-c4cccc(O)c4)c4nc(c(-c5cccc(O)c5)c5ccc2[nH]5)CC4)C=C3)c1
